Reference: publication PMC7932537, “Quantitative profiling of protease specificity” (PLoS Computational Biology, 2021)

What was measured:
MMP-2 [1] = experiment: Substrate phage display with NGS: relative probability (RP) of P3-P1' tetramer clusters; assay type: biochemical, human; conditions: MMP2;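 also: ratio of tetramer probability after protease selection to that in naive phage library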
MMP-2 [2] = molecular target: T1, MMP-2 (Homo sapiens, UniProt P08253); experiment: K(obs) of individual phage substrates (set of 1369); assay type: biochemical; conditions: MMP2
T1 sequence (P08253 110-660): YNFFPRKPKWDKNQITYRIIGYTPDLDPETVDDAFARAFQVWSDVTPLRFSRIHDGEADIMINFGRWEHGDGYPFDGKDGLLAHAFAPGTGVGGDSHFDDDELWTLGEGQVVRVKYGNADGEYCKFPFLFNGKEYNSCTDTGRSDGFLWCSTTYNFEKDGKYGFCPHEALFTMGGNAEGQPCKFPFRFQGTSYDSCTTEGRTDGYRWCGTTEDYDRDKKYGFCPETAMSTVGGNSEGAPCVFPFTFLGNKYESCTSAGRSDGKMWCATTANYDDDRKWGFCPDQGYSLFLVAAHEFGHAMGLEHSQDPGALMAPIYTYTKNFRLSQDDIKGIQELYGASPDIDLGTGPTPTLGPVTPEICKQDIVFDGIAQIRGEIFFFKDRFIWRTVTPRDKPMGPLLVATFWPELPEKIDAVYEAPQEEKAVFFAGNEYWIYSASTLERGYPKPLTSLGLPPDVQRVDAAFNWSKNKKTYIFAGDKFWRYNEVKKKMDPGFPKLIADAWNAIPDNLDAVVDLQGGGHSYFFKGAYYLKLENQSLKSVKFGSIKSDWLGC

MMP-9 = MMP-9 (Homo sapiens, UniProt P14780); experiment: as above; assay type: biochemical; conditions: MMP9
[3] = RP of the P3-P1' tetramer contained in the substrate
[4] = individual phage substrate of the set of 1369 peptides, cleavage position marked by '-'
[5] = individual phage substrate of the set of 1369 peptides, dash in the sequence marks the cleavage position
[6] = RP of the P3-P1' tetramer contained in the substrate (substrate phage display with NGS)
[7] = individual phage substrates, set of 1369 peptides, cleavage position marked by hyphen in sequence
[8] = individual phage substrates, set of 1369 peptides, hyphen in sequence marks cleavage position

MMP-9, sequence (P14780 94-707): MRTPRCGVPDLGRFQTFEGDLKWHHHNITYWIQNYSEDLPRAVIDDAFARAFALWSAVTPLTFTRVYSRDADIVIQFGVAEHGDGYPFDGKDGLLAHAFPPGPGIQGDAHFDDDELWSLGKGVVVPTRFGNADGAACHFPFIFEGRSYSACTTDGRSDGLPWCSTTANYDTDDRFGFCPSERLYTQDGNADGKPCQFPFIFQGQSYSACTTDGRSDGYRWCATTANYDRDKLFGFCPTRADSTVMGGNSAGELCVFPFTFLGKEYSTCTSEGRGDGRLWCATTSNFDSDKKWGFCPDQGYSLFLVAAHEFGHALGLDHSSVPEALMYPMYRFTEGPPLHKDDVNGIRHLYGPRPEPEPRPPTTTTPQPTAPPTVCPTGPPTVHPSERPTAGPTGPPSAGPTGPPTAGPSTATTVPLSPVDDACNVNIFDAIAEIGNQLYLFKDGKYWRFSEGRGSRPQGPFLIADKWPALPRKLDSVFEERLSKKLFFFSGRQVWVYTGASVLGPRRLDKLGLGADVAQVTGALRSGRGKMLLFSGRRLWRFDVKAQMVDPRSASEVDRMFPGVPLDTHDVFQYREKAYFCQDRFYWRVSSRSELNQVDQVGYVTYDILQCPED

Substance	relative probability (RP) (MMP-2 [1]; [3])	Kobs (MMP-2 [2]; [4]) [M⁻¹ s⁻¹]	Kobs (MMP-9; [5]) [M⁻¹ s⁻¹]	relative probability (RP) (MMP-2 [1]; [6])	Kobs (MMP-2 [2]; [7]) [M⁻¹ s⁻¹]	Kobs (MMP-9; [8]) [M⁻¹ s⁻¹]
GEVFS-LTASG	9.631	585.336	951.362	–	–	–
GEVRF-LRTAS	15.0438	9740.44	2837.92	–	–	–
GEVRG-LRTAS	–	–	–	29.092	12792.1	7386.83
GFAWS-LHTAS	7.006	654.784	2916.17	–	–	–
GFFLH-LTTAS	–	–	–	0.8093	0	0
GFPLM-LTASG	25.0435	9740.44	12792.1	–	–	–
GFPLM-YATAS	17.2027	142.481	1763.55	–	–	–
GFPQS-LMTAS	–	–	–	33.5105	10866.7	12792.1
GFSAN-LKTAS	23.7816	5667.28	484.315	–	–	–
GFWSS-LRTAS	16.6561	5461.43	0	–	–	–
GGPFL-LKTAS	–	–	–	9.085	1513.13	8321.48
GGPIP-LWTAS	–	–	–	33.1236	4763.33	12792.1
GGPRS-LFTAS	33.3704	12792.1	12792.1	–	–	–
GGPSM-LTASG	–	–	–	33.0235	12792.1	12792.1
GGSGA-LRVRG	13.4712	1154.21	0	–	–	–
GGSGH-LLGMS	1.458	2097.28	690.17	–	–	–
GGSGM-LKLQP	–	–	–	1.312	0	0
GGSGN-LTMGS	–	–	–	12.7361	0	0
GGSGS-LVLRL	–	–	–	7.225	1196.62	1030.73
GGSGS-LVNLL	–	–	–	7.225	0	0
GGVSF-LLTAS	–	–	–	5.918	1112.44	27.918
GGYAG-LRTAS	20.9112	4082.43	0	–	–	–
GGYAN-LTTAS	–	–	–	27.7486	5269.78	0
GHARS-LKTAS	–	–	–	17.186	2916.17	1239.69
GHAYH-LTASG	15.3364	3964.21	4763.33	–	–	–
GHVRH-LLTAS	25.4239	2545.25	386.839	–	–	–
GHYHH-LMTAS	0	0	0	–	–	–

Substance	relative probability (RP) (MMP-2 [1]; [3])	Kobs (MMP-2 [2]; [4]) [M⁻¹ s⁻¹]	Kobs (MMP-9; [5]) [M⁻¹ s⁻¹]	relative probability (RP) (MMP-2 [1]; [6])	Kobs (MMP-2 [2]; [7]) [M⁻¹ s⁻¹]	Kobs (MMP-9; [8]) [M⁻¹ s⁻¹]
GIAHQ-LKTAS	–	–	–	4.1	726.013	201.585
GIFWH-LRTAS	–	–	–	0	0	0
GIPFF-MTTAS	–	–	–	3.509	0	3079.62
GIPRP-VMTAS	29.4989	6688.74	6131.32	–	–	–
GIPYH-LATAS	27.2418	1816.46	7015.91	–	–	–
GISFA-LTTAS	–	–	–	0.5631	0	27.918
GISQS-LITAS	–	–	–	5.003	0	0
GIVGM-LQTAS	28.5913	4613.14	323.705	–	–	–
GIVKH-LQTAS	–	–	–	14.8595	1711.63	836.403
GIVRY-LQTAS	18.3724	4922.1	3438.54	–	–	–
GKLAS-LRTAS	–	–	–	31.1996	10866.7	84.609
GKLKH-LQTAS	–	–	–	11.1441	726.013	0
GKMFH-LITAS	–	–	–	0.052	292.668	142.481
GKPAS-LDTAS	–	–	–	36.4285	1239.69	0
GKVEY-LVTAS	–	–	–	5.301	0	0
GKVSE-LITAS	–	–	–	24.0996	231.616	142.481
GLAWG-LYTAS	–	–	–	17.7408	2916.17	2409.72
GLGLN-LTASG	–	–	–	0.5789	355.093	231.616
GLLLN-MTASG	–	–	–	13.7728	1711.63	517.582
GLPDF-LTASG	–	–	–	1.02	0	0
GLPLN-WRTAS	–	–	–	28.8158	2545.25	3964.21
GLPMH-LTASG	30.095	7386.83	10866.7	–	–	–
GLPTA-LRTAS	–	–	–	32.8941	12792.1	5667.28
GLPYA-LYTAS	–	–	–	33.2554	12792.1	12792.1
GMAQY-LTASG	–	–	–	7.443	4205.91	762.325
GMARF-LSTAS	–	–	–	8.577	2097.28	912.511
